In patent publication US20080070267A1, “Modulation Of Neurotransmitter Activity In Neurons” (The Regents of the University of California, priority 2004, published 2008):

What was measured:
[1] = tested on: Ca^2+ spike activity of cultured embryonic spinal neurons; assay: Suppression of spike activity in dissociated neuron cultures; format: cell-based, Xenopus; settings: 2 mM Ca^2+ culture medium
[2] = tested on: myoballs expressing glutamate receptors (rGluR2); assay: Whole-cell recording of spontaneous synaptic currents from myoballs expressing rGluR2 at neuronal growth cones; format: cell-based, Xenopus; settings: myoballs expressing rGluR2 in contact with growth cones

Row | SMILES | spike activity in vitro [1] | spontaneous synaptic currents (SSCs), glutamatergic [2]
1 | CC(=O)OCOC(=O)CN(CC(=O)OCOC(C)=O)c1ccccc1OCCOc1ccccc1N(CC(=O)OCOC(C)=O)CC(=O)OCOC(C)=O [BAPTA-AM, bis-(o-aminophenoxy)ethane-N,N,N,N-tetraacetic acid acetoxymethyl ester] | suppression of spike activity | –
2 | N#Cc1cc2c(cc1[N+](=O)[O-])=NC(=O)C(=O)N=2 [CNQX] | – | blocked
